Results as given in patent publication US20260157986A1, “METHODS OF TREATMENT OF PRIMARY BILIARY CHOLANGITIS” (Ipsen Pharma, priority 2024, published 2026).

Legend:
[1] = test system: patients with PBC; conditions: cited from earlier work
[2] = test system: participants with PBC and baseline ALP >1×ULN and <1.67×ULN; experiment: Phase IIIb randomised, double-blind, placebo-controlled, two-arm study (Example 1); assay type: in vivo, human; conditions: 80 mg once daily versus placebo; baseline ALP more than 1×ULN and at most 1.67×ULN
[3] = test system: subjects with PBC; experiment: Clinical study, not further specified (Summary); assay type: in vivo, human; conditions: treatment of subjects with elafibranor
[4] = test system: participants with PBC with inadequate response or intolerance to UDCA; experiment: ELATIVE phase III double-blind, randomised, placebo-controlled study (GFT505B-319-1, NCT04526665); assay type: in vivo, human
Procedure: This was assessed based on the primary endpoint, which combined reductions in ALP and total bilirubin (TB).

[5] = test system: patients with PBC; conditions: in vivo; cited from earlier work

For `CC[C@H]1[C@@H](O)[C@@H]2[C@H](CC[C@]3(C)[C@@H]([C@H](C)CCC(=O)O)CC[C@@H]23)[C@@]2(C)CC[C@@H](O)C[C@@H]12` [obeticholic acid], the liver failure ([1]; patients with advanced cirrhosis) is listed as “reports of patients with advanced cirrhosis developing liver failure” and the pruritus ([1]; second line therapy) is listed as “clinically significant pruritus has been reported in a significant portion of patients”.
In the case of `CSc1ccc(C(=O)/C=C/c2cc(C)c(OC(C)(C)C(=O)O)c(C)c2)cc1` [elafibranor], the “prevention of clinical outcome events showing disease worsening (including progression leading to liver transplant or death)” value [2] is reported as “better than placebo”, the “biochemical markers in the plasma” value [3] is reported as “relevant reduction of biochemical markers in the plasma” and the “improvement in cholestasis (primary endpoint combining reductions in ALP and total bilirubin)” value ([4]; compared to placebo, double-blind period) is reported as “greater improvement in cholestasis compared to placebo”. For the same compound, the safety and tolerability ([4]; patients with PBC) was “safe and well-tolerated”.
For `C[C@H](CCC(=O)O)[C@H]1CC[C@H]2[C@@H]3[C@@H](O)C[C@@H]4C[C@H](O)CC[C@]4(C)[C@H]3CC[C@]12C` [UDCA, Ursodeoxycholic acid], the “proportion of PBC patients intolerant to UDCA” value [5] is given as “up to 5%”.
